ChEMBL document CHEMBL1133449 (J Med Chem, 2000)

Columns and labels:
[1] = Compound was evaluated for the antagonism index at 1 uM; type: functional
[2] = Compound was evaluated for the antagonism index 10 uM; NR is No Reversion.; type: functional
Acetylcholinesterase [3] = biological target: T1, Acetylcholinesterase (Bos taurus, UniProt P23795)
T1 sequence (P23795 whole entry): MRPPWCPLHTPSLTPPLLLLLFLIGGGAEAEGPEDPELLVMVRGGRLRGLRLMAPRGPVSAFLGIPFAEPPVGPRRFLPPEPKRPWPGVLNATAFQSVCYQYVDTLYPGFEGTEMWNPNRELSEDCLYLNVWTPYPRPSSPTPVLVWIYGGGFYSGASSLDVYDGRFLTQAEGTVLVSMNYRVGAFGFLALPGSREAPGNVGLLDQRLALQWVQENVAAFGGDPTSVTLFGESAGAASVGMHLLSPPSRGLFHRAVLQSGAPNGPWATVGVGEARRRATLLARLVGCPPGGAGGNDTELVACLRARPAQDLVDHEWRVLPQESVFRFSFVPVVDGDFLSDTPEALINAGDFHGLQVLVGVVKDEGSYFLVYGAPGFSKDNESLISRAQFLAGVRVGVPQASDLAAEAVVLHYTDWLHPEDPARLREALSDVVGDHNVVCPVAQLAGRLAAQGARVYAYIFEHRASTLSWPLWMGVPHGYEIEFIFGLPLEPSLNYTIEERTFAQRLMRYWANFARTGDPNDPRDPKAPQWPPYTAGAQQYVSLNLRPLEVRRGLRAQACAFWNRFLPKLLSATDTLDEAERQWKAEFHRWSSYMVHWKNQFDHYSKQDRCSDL
Description: Compound was evaluated for the inhibition of acetylcholinesterase of bovine erythrocytes

Cholinesterase = Cholinesterase (Homo sapiens, UniProt P06276)
Description: Inhibition of butyrylcholinesterase (BChE) in human serum

Acetylcholinesterase [4] = biological target: Acetylcholinesterase (Homo sapiens, UniProt P22303)
Description: Inhibition of acetylcholinesterase isolated from Human erythrocytes.

Acetylcholinesterase [5] = biological target: T1, Acetylcholinesterase; remark: listed apart in the source
Acetylcholinesterase [6] = biological target: T1, Acetylcholinesterase; remark: listed apart in the source
Description: Compound was evaluated for the inhibition of acetylcholinesterase activity from bovine erythrocytes after 0 minutes of incubation

[7] = Compound was evaluated for the antagonism index 10 uM; NR ismNo reversion; type: functional
[8] = biological target: Cholinesterases; ACHE & BCHE (Homo sapiens) (UniProt P06276+P22303); test: Ratio between IC50 of human BChE and human AChE; type: protein assay
Chain of Cholinesterases; ACHE & BCHE (Homo sapiens) (P06276 whole entry, looked up): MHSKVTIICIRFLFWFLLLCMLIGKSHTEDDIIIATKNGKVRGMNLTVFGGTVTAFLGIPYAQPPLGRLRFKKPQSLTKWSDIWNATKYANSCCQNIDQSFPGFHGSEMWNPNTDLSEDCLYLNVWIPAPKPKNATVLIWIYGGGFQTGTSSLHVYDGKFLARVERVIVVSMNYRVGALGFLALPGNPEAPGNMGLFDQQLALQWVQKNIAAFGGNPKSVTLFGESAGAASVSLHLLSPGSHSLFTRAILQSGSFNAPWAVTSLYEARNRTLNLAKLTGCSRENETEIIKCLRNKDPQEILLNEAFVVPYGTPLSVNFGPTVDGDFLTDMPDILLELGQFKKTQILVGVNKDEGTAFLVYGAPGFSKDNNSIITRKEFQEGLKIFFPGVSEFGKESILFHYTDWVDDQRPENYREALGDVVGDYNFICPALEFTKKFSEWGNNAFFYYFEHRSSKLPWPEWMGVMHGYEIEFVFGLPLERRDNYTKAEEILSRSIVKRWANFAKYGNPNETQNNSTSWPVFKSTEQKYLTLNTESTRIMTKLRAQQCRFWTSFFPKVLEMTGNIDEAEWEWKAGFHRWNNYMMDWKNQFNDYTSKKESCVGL
Chain of Cholinesterases; ACHE & BCHE (Homo sapiens) (P22303 whole entry, looked up): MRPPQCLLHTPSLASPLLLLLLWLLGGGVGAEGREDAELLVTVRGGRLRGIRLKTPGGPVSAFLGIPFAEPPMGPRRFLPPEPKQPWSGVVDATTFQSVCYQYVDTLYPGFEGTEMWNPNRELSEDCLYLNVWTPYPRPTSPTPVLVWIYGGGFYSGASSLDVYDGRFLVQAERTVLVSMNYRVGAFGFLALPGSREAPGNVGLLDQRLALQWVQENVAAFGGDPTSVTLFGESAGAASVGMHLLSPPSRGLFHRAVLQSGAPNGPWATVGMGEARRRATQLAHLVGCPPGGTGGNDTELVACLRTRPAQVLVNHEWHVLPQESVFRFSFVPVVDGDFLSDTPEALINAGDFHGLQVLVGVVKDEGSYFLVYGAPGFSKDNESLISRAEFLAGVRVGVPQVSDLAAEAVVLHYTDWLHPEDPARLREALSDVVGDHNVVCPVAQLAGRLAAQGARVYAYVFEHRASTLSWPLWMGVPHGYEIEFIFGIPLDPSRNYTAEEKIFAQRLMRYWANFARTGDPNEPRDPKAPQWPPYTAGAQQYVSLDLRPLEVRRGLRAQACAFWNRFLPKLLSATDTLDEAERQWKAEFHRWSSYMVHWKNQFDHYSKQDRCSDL

Chain of Cholinesterase (P06276 whole entry): as the sequence (P06276 whole entry, looked up) above
Chain of Acetylcholinesterase (Homo sapiens, UniProt P22303) (P22303 whole entry): as the sequence (P22303 whole entry, looked up) above

Structure (SMILES) | IC50 (Acetylcholinesterase [3]) [nM] | IC50 (Cholinesterase) [nM] | IC50 (Acetylcholinesterase [4]) [nM] | other results
CC1=CC2Cc3nc4cc(Cl)ccc4c(N)c3C(C1)C2 (racemic; (+)) |  |  |  | inhibition [1]: 22.1%
CCC1=CC2Cc3nc4cc(C)ccc4c(N)c3C(C1)C2 (stereo not drawn) |  |  |  | NR [2]: No reversion
CCC1=CC2Cc3nc4cc(Cl)cc(Cl)c4c(N)c3C(C1)C2 (stereo not drawn) | 39.6 | 1210 | 1.39 | 
CC1=CC2Cc3nc4cc(Cl)ccc4c(N)c3C(C1)C2 (stereo in doubt) [HUPRINE Y] | 4.23 | 236 |  | IC50 (Acetylcholinesterase [5]): 0.64 nM; IC50 (Acetylcholinesterase [6]): 3.1 nM
CCC1=CC2Cc3nc4cc(Cl)ccc4c(N)c3[C@@H](C1)C2 (stereo in doubt) [HUPRINE X] | 2.77 | 15.8 | 0.75 | IC50 (Acetylcholinesterase [5]): 0.23 nM; IC50 (Acetylcholinesterase [6]): 3.34 nM
CCC1=CC2Cc3nc4cc(Cl)ccc4c(N)c3[C@@H](C1)C2 (mixture of isomers; (+)) |  |  |  | NR [7]: No reversion
CC1=CC2Cc3nc4cccc(F)c4c(N)c3C(C1)C2 (stereo not drawn) |  |  | 35.4 | Ratio [8]: 15.3
CC1=C[C@@H]2Cc3nc4cc(F)ccc4c(N)c3[C@H](C1)C2 |  |  | 4.58 | Ratio [8]: 43
CCC1=CC2Cc3nc4cccc(Cl)c4c(N)c3C(C1)C2 (stereo not drawn) |  | 331 | 11.7 | 
CCC1=CC2Cc3nc4cc(Cl)ccc4c(N)c3[C@@H](C1)C2 (mixture of isomers; (-)) [HUPRINE X] | 1.3 | 159 | 0.32 | IC50 (Acetylcholinesterase [5]): 0.0674 nM; IC50 (Acetylcholinesterase [6]): 2.31 nM
CCC1=CC2Cc3nc4cc(Cl)ccc4c(N)c3[C@@H](C1)C2 (mixture of isomers; (+)) [HUPRINE X] | 402 | 58.3 | 23.1 | IC50 (Acetylcholinesterase [5]): 350 nM; IC50 (Acetylcholinesterase [6]): 240 nM
CC1=CC2Cc3nc4cc(Cl)ccc4c(N)c3C(C1)C2 (racemic; (+)) [HUPRINE Y] | 65 | 153 |  | 
C/C=C1\[C@H]2C=C(C)C[C@]1(N)c1ccc(=O)[nH]c1C2 [HUPERZINE A] |  | > 10000 |  | 
CCC1=CC2Cc3nc4cc(F)cc(F)c4c(N)c3C(C1)C2 (stereo not drawn) | 2.62 | 194 | 1.76 | 
CCC1=CC2Cc3nc4cc(C)cc(C)c4c(N)c3C(C1)C2 (stereo not drawn) | 3.59 | 32.6 | 4.96 | Ratio [8]: 6.57
CC1=CC2Cc3nc4cc(Cl)ccc4c(N)c3C(C1)C2 (racemic; (-)) [HUPRINE Y] | 1.15 | 247 |  | IC50 (Acetylcholinesterase [5]): 0.0245 nM; IC50 (Acetylcholinesterase [6]): 3.03 nM
CC1=CC2Cc3nc4cc(F)cc(F)c4c(N)c3C(C1)C2 (stereo not drawn) |  | 963 | 2.2 | Ratio [8]: 438
